Assay results from patent US20250171430A1, “PYRAZOLYL COMPOUNDS AS KV7 CHANNEL ACTIVATORS” (Biohaven Therapeutics Ltd., priority 2022, published 2025).

Target: T1, Kv7.2/7.3 (Homo sapiens, UniProt O43525+O43526)
T1 construct: Kv7.2 tetracycline-induced, Kv7.3 constitutive
Experiment: Kv7.2/7.3 Activation Assay (Thallium Flux Assay)
Format: cell-based
Conditions: hKV7.2/7.3 cell line; test compound at single concentration of 10 μM; fluorescence at 90 sec normalized to positive control (retigabine, 30 μM)
From the text: The Thallium Flux Assay is used as a surrogate indicator of potassium channel activity.
The experimental protocol was adapted from the FluxOR™ II Green Potassium Ion Channel Assay User Guide (Pub. No. MAN0016084, Invitrogen). Conditions were optimized for the Kv7.2/7.3 cell line.
Cell Line: The hKV7.2/7.3 cell line was obtained from Chantest (cat. #CT6147).
Cell Culture: Kv7.2/7.3 cells were maintained in a media containing DMEM/F12; 50/50 (Fisher 11-330), 10% Fetal Bovine Serum (FBS) (Fisher 26-140), 100 units/mL Penicillin-Streptomycin (Fisher 15-140), 0.005 mg/ml Blasticidin (InvivoGen ant-bl-1), 0.5 mg/mL Geneticin (InvivoGen ant-gn-5), and 0.1 mg/mL Zeocin (Fisher R25001). One day prior to experimentation, cells were plated in 96 well clear bottom plates (Corning cat. #353219) in a media without Blasticidin, Geneticin, or Zeocin. In this cell line Kv7.3 channel expression is controlled by a constitutive promoter. Kv7.2 channel expression was induced by adding tetracycline (Sigma T7660) at a final concentration of 10 ng/mL overnight in a cell culture incubator at 37° C. and 5% CO2. On the day of assay, the cell culture medium in the 96-well plates was replaced by assay buffer containing the thallium-sensitive fluorescent sensor, FluxOR II Green prepared according to manufacturer's instructions. The 96-well plates were then incubated for 1 h at 37° C. Following the incubation, the FluxOR II Green-containing solution was replaced with extracellular solution.
Test Compound Plates: The test compound is diluted in a mixture of 0.1% DMSO/extracellular solution at a single concentration of 10 μM. Dilutions were made on a Biomek NXP (BECKMAN COULTER). Extracellular solution contained (in mM: 145 NaCl, 4 KCl, 2 CaCl2), 1 MgCl2, 10 HEPES, and 10 Glucose, pH 7.4).
Measurement and data analysis: Thallium-flux-mediated changes in intracellular fluorescence were made using a plate reader (Enspire, Perkin Elmer) set with an excitation wavelength of 475 nm and an emission wavelength of 530 nm. After a 15 sec baseline measurement, the stimulus buffer containing thallium and potassium was added to the 96-well plate containing FluxOR II Green-loaded cells and test compounds. Fluorescence values at 90 sec were normalized to the positive control (retigabine, 30 μM) and test compound activities were assigned categories according to the formula: “No Activity <0.15, “+” Moderate Activity 0.15-0.7, and “++” High Activity >0.7.

| Kv7.2/7.3 Activity | SMILES |
| --- | --- |
| − (“−” No Activity < 0.15) | Cn1nc(NC(=O)C[C@@H]2CC(F)(F)C2(F)F)c(C2CCC2)c1-c1ccc(S(C)(=O)=O)cc1 [Compound 53, (R)-N-(4-cyclobutyl-1-methyl-5-(4-(methylsulfonyl)phenyl)-1H-pyrazol-3-yl)-2-(2,2,3,3-tetrafluorocyclobutyl)acetamide] |
| − (“−” No Activity < 0.15) | Cn1nc(NC(=O)C[C@H]2CC(F)(F)C2(F)F)c(C2CCC2)c1-c1ccc(S(C)(=O)=O)cc1 [Compound 54, (S)-N-(4-cyclobutyl-1-methyl-5-(4-(methylsulfonyl)phenyl)-1H-pyrazol-3-yl)-2-(2,2,3,3-tetrafluorocyclobutyl)acetamide] |
| + (“+” Moderate Activity 0.15-0.7) | Cn1nc(NC(=O)CC(C)(C)O)c(C2CCC2)c1-c1ccc(OC(F)(F)F)cc1 [Compound 55, N-(4-cyclobutyl-1-methyl-5-(4-(trifluoromethoxy)phenyl)-1H-pyrazol-3-yl)-3-hydroxy-3-methylbutanamide] |
| ++ (“++” High Activity ≥ 0.7) | COc1ccc(-c2c(C3CCC3)c(NC(=O)C[C@@H]3CC(F)(F)C3(F)F)nn2C)cc1 [Compound 56, (R)-N-(4-cyclobutyl-5-(4-methoxyphenyl)-1-methyl-1H-pyrazol-3-yl)-2-(2,2,3,3-tetrafluorocyclobutyl)acetamide] |
| ++ (“++” High Activity ≥ 0.7) | COc1ccc(-c2c(C3CCC3)c(NC(=O)C[C@H]3CC(F)(F)C3(F)F)nn2C)cc1 [Compound 57, (S)-N-(4-cyclobutyl-5-(4-methoxyphenyl)-1-methyl-1H-pyrazol-3-yl)-2-(2,2,3,3-tetrafluorocyclobutyl)acetamide] |
| ++ (“++” High Activity ≥ 0.7) | O=C(C[C@@H]1CC(F)(F)C1(F)F)Nc1nn(CCO)c(-c2ccc(F)cc2)c1C1CCC1 [Compound 58, (R)-N-(4-cyclobutyl-5-(4-fluorophenyl)-1-(2-hydroxyethyl)-1H-pyrazol-3-yl)-2-(2,2,3,3-tetrafluorocyclobutyl)acetamide] |
| + (“+” Moderate Activity 0.15-0.7) | Cn1nc(NC(=O)C[C@@H]2CC(F)(F)C2(F)F)c(C2CCC2)c1-c1cnc(C(F)(F)F)s1 [Compound 59, (R)-N-(4-cyclobutyl-1-methyl-5-(2-(trifluoromethyl)thiazol-5-yl)-1H-pyrazol-3-yl)-2-(2,2,3,3-tetrafluorocyclobutyl)acetamide] |
| + (“+” Moderate Activity 0.15-0.7) | Cn1nc(NC(=O)C[C@H]2CC(F)(F)C2(F)F)c(C2CCC2)c1-c1cnc(C(F)(F)F)s1 [Compound 60, (S)-N-(4-cyclobutyl-1-methyl-5-(2-(trifluoromethyl)thiazol-5-yl)-1H-pyrazol-3-yl)-2-(2,2,3,3-tetrafluorocyclobutyl)acetamide] |
| ++ (“++” High Activity ≥ 0.7) | Cn1nc(NC(=O)C[C@@H]2CC(F)(F)C2(F)F)c(C2CCC2)c1CCc1ccccc1 [Compound 61, (R)-N-(4-cyclobutyl-1-methyl-5-phenethyl-1H-pyrazol-3-yl)-2-(2,2,3,3-tetrafluorocyclobutyl)acetamide] |
| ++ (“++” High Activity ≥ 0.7) | Cn1nc(NC(=O)C[C@H]2CC(F)(F)C2(F)F)c(C2CCC2)c1CCc1ccccc1 [Compound 62, (S)-N-(4-cyclobutyl-1-methyl-5-phenethyl-1H-pyrazol-3-yl)-2-(2,2,3,3-tetrafluorocyclobutyl)acetamide] |
| ++ (“++” High Activity ≥ 0.7) | Cn1nc(NC(=O)C[C@@H]2CC(F)(F)C2(F)F)c(C2CCC2)c1Cc1ccc(OC(F)(F)F)cc1 [Compound 63, (R)-N-(4-cyclobutyl-1-methyl-5-(4-(trifluoromethoxy)benzyl)-1H-pyrazol-3-yl)-2-(2,2,3,3-tetrafluorocyclobutyl)acetamide] |
| + (“+” Moderate Activity 0.15-0.7) | Cn1nc(NC(=O)C[C@H]2CC(F)(F)C2(F)F)c(C2CCC2)c1Cc1ccc(OC(F)(F)F)cc1 [Compound 64, (S)-N-(4-cyclobutyl-1-methyl-5-(4-(trifluoromethoxy)benzyl)-1H-pyrazol-3-yl)-2-(2,2,3,3-tetrafluorocyclobutyl)acetamide] |
| ++ (“++” High Activity ≥ 0.7) | O=C(C[C@@H]1CC(F)(F)C1(F)F)Nc1nn(CCO)c(Cc2ccccc2)c1C1CCC1 [Compound 65, (R)-N-(5-benzyl-4-cyclobutyl-1-(2-hydroxyethyl)-1H-pyrazol-3-yl)-2-(2,2,3,3-tetrafluorocyclobutyl)acetamide] |
| ++ (“++” High Activity ≥ 0.7) | Cn1nc(NC(=O)C[C@@H]2CC(F)(F)C2(F)F)c(C2CCC2)c1C1CCCCC1 [Compound 66, (R)-N-(4-cyclobutyl-5-cyclohexyl-1-methyl-1H-pyrazol-3-yl)-2-(2,2,3,3-tetrafluorocyclobutyl)acetamide] |

The next lines start with the molecule.

| SMILES | Kv7.2/7.3 Activity |
| --- | --- |
| Cn1nc(NC(=O)CC(C)(C)C2CC2)c(C2CC(F)(F)C2)c1-c1ccc(OC(F)(F)F)cc1 [Compound 43, 3-cyclopropyl-N-(4-(3,3-difluorocyclobutyl)-1-methyl-5-(4-(trifluoromethoxy)phenyl)-1H-pyrazol-3-yl)-3-methylbutanamide] | + (“+” Moderate Activity 0.15-0.7) |
| Cn1nc(NC(=O)C[C@@H]2CC(F)(F)C2(F)F)c(C2CCC2)c1C(=O)c1ccccc1 [Compound 44, (R)-N-(5-benzoyl-4-cyclobutyl-1-methyl-1H-pyrazol-3-yl)-2-(2,2,3,3-tetrafluorocyclobutyl)acetamide] | ++ (“++” High Activity ≥ 0.7) |
| N#CCn1nc(NC(=O)C[C@@H]2CC(F)(F)C2(F)F)c(C2CCC2)c1-c1ccc(F)cc1 [Compound 45, (R)-N-(1-(cyanomethyl)-4-cyclobutyl-5-(4-fluorophenyl)-1H-pyrazol-3-yl)-2-(2,2,3,3-tetrafluorocyclobutyl)acetamide] | ++ (“++” High Activity ≥ 0.7) |
| N#CCn1nc(NC(=O)C[C@H]2CC(F)(F)C2(F)F)c(C2CCC2)c1-c1ccc(F)cc1 [Compound 46, (S)-N-(1-(cyanomethyl)-4-cyclobutyl-5-(4-fluorophenyl)-1H-pyrazol-3-yl)-2-(2,2,3,3-tetrafluorocyclobutyl)acetamide] | + (“+” Moderate Activity 0.15-0.7) |
| Cn1nc(NC(=O)C[C@@H]2CC(F)(F)C2(F)F)c(C2CCC2)c1-c1cccc(C(C)(C)O)c1 [Compound 47, (R)-N-(4-cyclobutyl-5-(3-(2-hydroxypropan-2-yl)phenyl)-1-methyl-1H-pyrazol-3-yl)-2-(2,2,3,3-tetrafluorocyclobutyl)acetamide] | + (“+” Moderate Activity 0.15-0.7) |
| Cn1nc(NC(=O)C[C@H]2CC(F)(F)C2(F)F)c(C2CCC2)c1-c1cccc(C(C)(C)O)c1 [Compound 48, (S)-N-(4-cyclobutyl-5-(3-(2-hydroxypropan-2-yl)phenyl)-1-methyl-1H-pyrazol-3-yl)-2-(2,2,3,3-tetrafluorocyclobutyl)acetamide] | + (“+” Moderate Activity 0.15-0.7) |
| Cn1nc(NC(=O)CC(C)(C)C(F)(F)F)c(C2CCC2)c1-c1cnc(C(F)(F)F)s1 [Compound 49, N-(4-cyclobutyl-1-methyl-5-(2-(trifluoromethyl)thiazol-5-yl)-1H-pyrazol-3-yl)-4,4,4-trifluoro-3,3-dimethylbutanamide] | + (“+” Moderate Activity 0.15-0.7) |
| Cn1nc(NC(=O)CC2(C(F)(F)F)CC2)c(C2CCC2)c1-c1cnc(C(F)(F)F)s1 [Compound 50, N-(4-cyclobutyl-1-methyl-5-(2-(trifluoromethyl)thiazol-5-yl)-1H-pyrazol-3-yl)-2-(1-(trifluoromethyl)cyclopropyl)acetamide] | − (“−” No Activity < 0.15) |
| Cn1nc(NC(=O)C2C(C)(C)C2(C)C)c(C2CCC2)c1-c1ccc(OC(F)(F)F)cc1 [Compound 51, N-(4-cyclobutyl-1-methyl-5-(4-(trifluoromethoxy)phenyl)-1H-pyrazol-3-yl)-2,2,3,3-tetramethylcyclopropane-1-carboxamide] | + (“+” Moderate Activity 0.15-0.7) |
| Cn1nc(NC(=O)[C@H]2C(C)(C)C2(F)F)c(C2CCC2)c1-c1ccc(OC(F)(F)F)cc1 [Compound 52, (R)-N-(4-cyclobutyl-1-methyl-5-(4-(trifluoromethoxy)phenyl)-1H-pyrazol-3-yl)-2,2-difluoro-3,3-dimethylcyclopropane-1-carboxamide] | + (“+” Moderate Activity 0.15-0.7) |
